pIC50: −log10 of the molar value.
Biological target: T1, Sex hormone-binding globulin (Homo sapiens) (UniProt P04278)
T1 sequence (whole entry): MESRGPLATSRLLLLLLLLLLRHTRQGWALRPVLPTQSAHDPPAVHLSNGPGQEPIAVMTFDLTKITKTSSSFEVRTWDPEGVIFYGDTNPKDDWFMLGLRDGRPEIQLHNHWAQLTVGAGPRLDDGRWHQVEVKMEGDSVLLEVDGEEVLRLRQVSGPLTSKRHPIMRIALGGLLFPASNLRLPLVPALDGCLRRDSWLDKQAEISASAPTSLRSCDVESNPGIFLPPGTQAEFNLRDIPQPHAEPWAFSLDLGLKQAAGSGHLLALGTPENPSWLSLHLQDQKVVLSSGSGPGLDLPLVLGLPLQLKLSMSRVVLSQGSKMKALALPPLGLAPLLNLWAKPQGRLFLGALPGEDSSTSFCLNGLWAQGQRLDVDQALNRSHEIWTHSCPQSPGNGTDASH
Test: In vitro relative binding affinity against hSHBG (human sex hormone binding globulin)

`CCOC(=O)C(/C=N/c1ccc(F)c(-c2cc(C)nc(C)c2)c1)=C(/O)OCC` and `CCOC(=O)C(/C=N/c1cccc(-c2cc(C)nc(C)c2)c1)=C(\O)OCC` cannot be ordered by relative binding affinity (RBA): under 0.01 for the first, under 0.01 for the second.

`Cc1cc(-c2cc([N+](=O)[O-])ccc2F)cc(C)n1` and `Cc1cc(-c2cc(N)ccc2F)cc(C)n1` cannot be ordered by relative binding affinity (RBA): under 0.01 for the first, under 0.01 for the second.

`Cc1cc(-c2ccccc2F)cc(C)n1` and `Cc1cc2c(c(C)n1)c(=O)oc1ccccc12` cannot be ordered by relative binding affinity (RBA): under 0.01 for the first, under 0.01 for the second.

`C[C@]1(O)CC[C@H]2[C@@H]3CCC4=CC(=O)CCC4=C3C=C[C@@]21C` [METRIBOLONE] gave a relative binding affinity (RBA) of 0.2.

Biological target: T2, Sex hormone-binding globulin (Rattus norvegicus, UniProt P08689)
T2 sequence (P08689 whole entry): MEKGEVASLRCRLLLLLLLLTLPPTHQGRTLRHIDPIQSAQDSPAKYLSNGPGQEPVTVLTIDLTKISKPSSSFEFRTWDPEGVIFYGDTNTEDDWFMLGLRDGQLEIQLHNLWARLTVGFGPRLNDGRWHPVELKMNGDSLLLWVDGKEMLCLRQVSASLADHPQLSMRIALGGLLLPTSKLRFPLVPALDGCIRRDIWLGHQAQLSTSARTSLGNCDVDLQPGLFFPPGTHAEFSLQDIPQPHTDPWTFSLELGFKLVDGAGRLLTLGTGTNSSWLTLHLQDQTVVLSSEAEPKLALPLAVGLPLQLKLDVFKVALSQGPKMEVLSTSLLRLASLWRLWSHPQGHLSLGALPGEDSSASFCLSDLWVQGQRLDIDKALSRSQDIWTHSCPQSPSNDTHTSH
Test: Inhibition of rat androgen binding protein (rABP) (n=9)

With `C[C@]1(O)CC[C@H]2[C@@H]3CCC4=CC(=O)CCC4=C3C=C[C@@]21C` [METRIBOLONE] the pIC50 was 8.43.

— ChEMBL document CHEMBL1124923, “A novel, nonsteroidal inhibitor of androgen binding to the rat androgen binding protein: diethyl [[[3-(2,6-dimethyl-4-pyridinyl)-4-fluorophenyl]amino]methylene] propanedioate” (J Med Chem, 1990)
